Results taken from US5264372A (Amylin Pharmaceuticals, Inc., priority 1991, dated 1993).

Tests used:
[1] = molecular target: T1, ^125 I-h CGRP binding site (CGRP receptor) in rat liver membranes (Rattus norvegicus, UniProt Q63118+Q9JJ74); experiment: 125I-h CGRP binding to rat liver membranes (saturation and competition)
T1 construct: from tissue; host or cells: rat liver membranes
Description: Membranes were prepared from male Wistar or Sprague-Dawley rats (200-250 grams). Following decapitation, liver, soleus muscle and brain regions were removed to phosphate-buffered saline (PBS), pH 7.4 at 4° C. Tissues were weighed then placed in 5 ml/g tissue of ice-cold 20 mM HEPES buffer, pH 7.4, and homogenized with a Polytron at setting 4 for 10 seconds. An additional 30 ml of cold HEPES was added, and the homogenates centrifuged for 15 minutes at 48,000×g. After discarding the supernatant fluids, membrane pellets were homogenized in 40 ml of fresh HEPES buffer and centrifuged as before. Membranes were washed again by homogenization in buffer and centrifugation.
The final membrane pellet was resuspended in a volume of 20 mM HEPES buffer containing 0.2 mM PMSF added immediately before use from a stock 0.2 M solution in ethanol. A volume of buffer was used sufficient to yield a concentration of about 0 to about 20 mg original tissue/ml.
To 12×75 mm glass or polypropylene tubes were added 150 μl of HBBM buffer (20 mM HEPES buffer, pH 7.4, containing 1 mg/ml bacitracin, 1 mg/ml protease-free BSA Fraction V, 4 mM MgCl2) to which 0.2 mM PMSF was added just prior to use.
To this solution, 50 μl of unlabeled peptide diluted in HBBM buffer at concentrations of […] to 10^-6 M, were added. Control tubes contained HBBM alone. […] Incubations were begun by the addition of 250 μl of buffer containing membranes from 4 mg original weight of tissue, and continued for 60 minutes at room temperature (24° C.).
Suspensions were then filtered through GF/B glass fiber filters (previously soaked for 5 hours in 0.3% PEI) in a Brandel M-24 harvester. Filters were washed immediately before use with 5 ml of cold PBS, and immediately after filtration with 15 ml cold PBS. Filters were then counted in a gamma-counter.
The concentration of free ligand was derived by subtracting […] from total ligand added.
Scatchard and competition curve analysis was performed as described above.

[2] = molecular target: ^125 I-CGRP binding in skeletal muscle crude membrane preparations; conditions: Chantry et al.; cited from earlier work
[3] = Plasma glucose increment after i.v. peptide in fasted anesthetized rats; conditions: doses of 1 and 10 μg i.v.
[4] = molecular target: ^125 I-CGRP binding sites in membranes from rat cerebellum (Rattus norvegicus, UniProt Q63118+Q9JJ74)
Description: Binding assays were carried out as described in Example II.
Cerebellum membranes were also tested, as this area contains high densities of CGRP receptors but low to absent amounts of the variant CGRP receptor subtypes present in nucleus accumbens (Sexton et al., 1988).

[5] = molecular target: ^125 I-h CGRP binding sites in nucleus accumbens and surrounding regions; experiment: Competition for 125I-h CGRP binding to nucleus accumbens area (basal forebrain) membranes; set-up: species or system rat
From the text: From the ventral surface of rat brains, cuts were made rostral to the hypothalamus bounded laterally by the olfactory tracts and extending at a 45 angle medially from these tracts. This tissue, containing the nucleus accumbens and surrounding regions, was collected and weighed, and membranes prepared as described in Example I. The region from which tissue was collected as described above is here termed the basal forebrain, and includes the nucleus accumbens and surrounding regions.

[6] = tested on: insulin-stimulated glycogen synthesis in rat soleus muscle; experiment: Rat soleus muscle insulin-antagonism assay (inhibition of insulin-stimulated glycogen synthesis); assay type: cell-based; conditions: for IC50: insulin 1000 μU/ml, read-out: IC50 for inhibition of the stimulation of glycogen synthesis by insulin; for Agonist activity in words: amylin receptors in rat skeletal muscle
Description: The ability of insulin to stimulate glycogen synthesis in rat soleus muscle in vitro was measured as described by Leighton B. and Cooper, G. J. S., Nature 335:632-635 (1988), with the following modifications. Rats were unfed for 4 hours prior to sacrifice; muscles were not stretched on clips; bovine serum albumin (BSA) and HEPES were omitted from the assay medium; and, the insulin concentration used was 1000 μU/ml.

[7] = molecular target: T2, CGRP binding sites (receptors) on liver membrane (Rattus norvegicus, UniProt Q63118+Q9JJ74); conditions: Morishita et al.; read-out: Affinity; cited from earlier work
T2 construct: host or cells: liver membranes; crude skeletal muscle membranes

[8] = molecular target: T3, calcitonin sites in brain and renal membranes (Homo sapiens, UniProt P30988); conditions: cited from earlier work
T3 construct: host or cells: brain and renal membranes
T3 sequence (P30988 25-474): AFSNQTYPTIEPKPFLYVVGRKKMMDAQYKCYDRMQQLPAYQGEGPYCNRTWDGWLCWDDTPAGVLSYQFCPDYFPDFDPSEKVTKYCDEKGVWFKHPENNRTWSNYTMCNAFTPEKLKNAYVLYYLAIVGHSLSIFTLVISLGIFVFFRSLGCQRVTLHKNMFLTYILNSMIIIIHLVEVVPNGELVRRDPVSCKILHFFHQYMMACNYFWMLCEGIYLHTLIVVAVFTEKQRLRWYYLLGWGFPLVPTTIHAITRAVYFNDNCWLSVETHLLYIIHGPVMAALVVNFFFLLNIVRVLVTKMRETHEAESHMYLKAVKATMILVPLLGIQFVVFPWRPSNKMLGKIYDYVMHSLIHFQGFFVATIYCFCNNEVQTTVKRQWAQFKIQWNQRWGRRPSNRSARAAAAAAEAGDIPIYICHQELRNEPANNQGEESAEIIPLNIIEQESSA

[9] = tested on: rat liver membranes; experiment: 125I-r amylin binding to rat liver membranes; conditions: 15 pM tracer; 1 μM h CGRP or 1 μM r amylin as displacing peptide
From the text: (§1) Control tubes contained HBBM alone.
(§2) Filters were then counted in a gamma-counter.

[10] = tested on: rat soleus muscle membranes; experiment: Direct binding of labeled r amylin to rat soleus muscle membranes; conditions: by 1 μM unlabeled r amylin
From the text: as §1, §2

[11] = tested on: CGRP binding sites in cerebral cortex; conditions: human and rat cerebral cortex; cited from earlier work

T1 sequence (Q63118 24-464): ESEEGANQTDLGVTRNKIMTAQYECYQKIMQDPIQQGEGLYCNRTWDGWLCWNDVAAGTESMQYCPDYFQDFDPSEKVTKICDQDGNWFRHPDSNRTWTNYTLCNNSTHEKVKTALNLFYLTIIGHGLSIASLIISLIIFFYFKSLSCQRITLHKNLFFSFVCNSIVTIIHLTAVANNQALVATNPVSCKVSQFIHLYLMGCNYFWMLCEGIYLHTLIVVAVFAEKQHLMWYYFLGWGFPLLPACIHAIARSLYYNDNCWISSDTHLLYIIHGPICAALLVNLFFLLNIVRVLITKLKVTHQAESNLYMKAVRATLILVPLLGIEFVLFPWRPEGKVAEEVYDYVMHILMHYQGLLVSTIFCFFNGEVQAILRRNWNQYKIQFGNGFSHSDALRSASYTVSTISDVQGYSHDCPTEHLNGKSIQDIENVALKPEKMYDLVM
T1 sequence (Q9JJ74 27-148): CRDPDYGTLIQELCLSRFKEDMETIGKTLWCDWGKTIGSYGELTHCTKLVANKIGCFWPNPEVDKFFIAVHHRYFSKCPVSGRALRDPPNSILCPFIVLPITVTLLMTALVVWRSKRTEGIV
T2 sequence (Q63118 24-464): as the sequence (Q63118 24-464) above
T2 sequence (Q9JJ74 27-148): as the sequence (Q9JJ74 27-148) above
Sequence of ^125 I-CGRP binding sites in membranes from rat cerebellum (Q63118 24-464): as the sequence (Q63118 24-464) above
Sequence of ^125 I-CGRP binding sites in membranes from rat cerebellum (Q9JJ74 27-148): as the sequence (Q9JJ74 27-148) above

## CC(C)C[C@H](NC(=O)CNC(=O)[C@H](C)NC(=O)[C@H](CC(C)C)NC(=O)[C@H](CCCNC(=N)N)NC(=O)[C@H](Cc1cnc(I)[nH]1)NC(=O)[C@@H](NC(=O)[C@@H](NC(=O)[C@@H]1CSSC[C@H](NC(=O)[C@H](C)N)C(=O)N[C@@H](CC(=O)O)C(=O)N[C@@H]([C@@H](C)O)C(=O)N[C@@H](C)C(=O)N[C@@H]([C@@H](C)O)C(=O)N1)C(C)C)[C@@H](C)O)C(=O)N[C@@H](CC(C)C)C(=O)N[C@@H](CO)C(=O)N[C@@H](CCCNC(=N)N)C(=O)N[C@@H](CO)C(=O)NCC(=O)NCC(=O)N[C@H](C(=O)N[C@H](C(=O)N[C@@H](CCCCN)C(=O)N[C@@H](CC(N)=O)C(=O)N[C@@H](CC(N)=O)C(=O)N[C@@H](Cc1ccccc1)C(=O)N[C@H](C(=O)N1CCC[C@H]1C(=O)N[C@H](C(=O)N[C@@H](CC(N)=O)C(=O)N[C@H](C(=O)NCC(=O)N[C@@H](CO)C(=O)N[C@@H](CCCCN)C(=O)N[C@@H](C)C(=O)N[C@@H](Cc1ccccc1)C(N)=O)C(C)C)[C@@H](C)O)C(C)C)C(C)C)C(C)C [^125 I-h CGRP]
[1]; 2 mM MgCl2
  Increase of binding to liver membranes in the presence of MgCl2: about 2.8 fold
[1]; Scatchard analysis, rat liver membranes
  Bmax: 49.4 fmol/mg protein

## CC(C)C[C@H](NC(=O)[C@H](CC(N)=O)NC(=O)[C@H](CC(N)=O)NC(=O)[C@H](CO)NC(=O)[C@H](CO)NC(=O)[C@H](CCCNC(=N)N)NC(=O)[C@@H](NC(=O)[C@H](CC(C)C)NC(=O)[C@H](Cc1ccccc1)NC(=O)[C@H](CC(N)=O)NC(=O)[C@H](C)NC(=O)[C@H](CC(C)C)NC(=O)[C@H](CCCNC(=N)N)NC(=O)[C@H](CCC(N)=O)NC(=O)[C@@H](NC(=O)[C@H](C)NC(=O)[C@@H]1CSSC[C@H](NC(=O)[C@@H](N)CCCCN)C(=O)N[C@@H](CC(N)=O)C(=O)N[C@@H]([C@@H](C)O)C(=O)N[C@@H](C)C(=O)N[C@@H]([C@@H](C)O)C(=O)N1)[C@@H](C)O)C(C)C)C(=O)NCC(=O)N1CCC[C@H]1C(=O)N[C@H](C(=O)N[C@@H](CC(C)C)C(=O)N1CCC[C@H]1C(=O)N1CCC[C@H]1C(=O)N[C@H](C(=O)N[C@@H](CC(N)=O)C(=O)N[C@H](C(=O)NCC(=O)N[C@@H](CO)C(=O)N[C@@H](CC(N)=O)C(=O)N[C@H](C(=O)N[C@@H](Cc1ccc(O)cc1)C(N)=O)[C@@H](C)O)C(C)C)[C@@H](C)O)C(C)C [amylin]
[2]
  IC50: 10 nM
[3]
  Hyperglycemic effect compared with CGRP: more effective hyperglycemic agent

## CC(C)C[C@H](NC(=O)[C@H](CC(N)=O)NC(=O)[C@H](CC(N)=O)NC(=O)[C@H](CO)NC(=O)[C@H](CO)NC(=O)[C@H](CCCNC(=N)N)NC(=O)[C@@H](NC(=O)[C@H](CC(C)C)NC(=O)[C@H](Cc1ccccc1)NC(=O)[C@H](CC(N)=O)NC(=O)[C@H](C)NC(=O)[C@H](CC(C)C)NC(=O)[C@H](CCCNC(=N)N)NC(=O)[C@H](CCC(N)=O)NC(=O)[C@@H](NC(=O)[C@H](C)NC(=O)[C@@H]1CSSC[C@H](NC(=O)[C@@H](N)CCCCN)C(=O)N[C@@H](CC(N)=O)C(=O)N[C@@H]([C@@H](C)O)C(=O)N[C@@H](C)C(=O)N[C@@H]([C@@H](C)O)C(=O)N1)[C@@H](C)O)C(C)C)C(=O)NCC(=O)N1CCC[C@H]1C(=O)N[C@H](C(=O)N[C@@H](CC(C)C)C(=O)N1CCC[C@H]1C(=O)N1CCC[C@H]1C(=O)N[C@H](C(=O)N[C@@H](CC(N)=O)C(=O)N[C@H](C(=O)NCC(=O)N[C@@H](CO)C(=O)N[C@@H](CC(N)=O)C(=O)N[C@H](C(=O)N[C@@H](Cc1ccc(O)cc1)C(N)=O)[C@@H](C)O)C(C)C)[C@@H](C)O)C(C)C [r amylin, rat amylin]
[1]; competition against ^125 I-h CGRP, rat liver membranes
  Hill Slope: -0.67
[4]
  Hill Slope: -0.897
[5]; Nucleus Accumbens Area, ^125 I-h CGRP tracer, r amylin 2 site fit
  IC50: 5.89 nM
[5]; high affinity site of biphasic inhibition
  IC50: 0.026 nM
[6]
  IC50: 8.3 ± 1.9 nM

## CGRP
[1]; liver membranes
  Potency relative to h CGRP8-37: 4 times
  Potency relative to r amylin: about 200 fold
[7]
  Ki: ~0.009 nM
[2]
  IC50: 0.3 nM
[8]
  Fold less potent in competing for calcitonin sites: 500-1000 fold

## ^125 I-r amylin: rat amylin Bolton-Hunter labeled with 125I at the N-terminal lysine, from Amersham
[9]
  Specific binding to rat liver membranes: No specific binding
[10]
  Proportion of total binding displaceable: 15%

## calcitonin
[11]
  Fold less potent than rat or human CGRP: 500-1000 fold

## eel calcitonin
[6]
  Agonist activity in words: potent agonists at amylin receptors
  IC50: 0.4 nM

## salmon calcitonin
[6]
  Agonist activity in words: potent agonists at amylin receptors
  IC50: 0.38 nM
